The values that follow come from article PMC11682371 (Scientific Reports, 2024).

This experiment has as its target T1, recombinant human MAO-B (Homo sapiens, UniProt P27338).
T1 sequence (P27338 1-520): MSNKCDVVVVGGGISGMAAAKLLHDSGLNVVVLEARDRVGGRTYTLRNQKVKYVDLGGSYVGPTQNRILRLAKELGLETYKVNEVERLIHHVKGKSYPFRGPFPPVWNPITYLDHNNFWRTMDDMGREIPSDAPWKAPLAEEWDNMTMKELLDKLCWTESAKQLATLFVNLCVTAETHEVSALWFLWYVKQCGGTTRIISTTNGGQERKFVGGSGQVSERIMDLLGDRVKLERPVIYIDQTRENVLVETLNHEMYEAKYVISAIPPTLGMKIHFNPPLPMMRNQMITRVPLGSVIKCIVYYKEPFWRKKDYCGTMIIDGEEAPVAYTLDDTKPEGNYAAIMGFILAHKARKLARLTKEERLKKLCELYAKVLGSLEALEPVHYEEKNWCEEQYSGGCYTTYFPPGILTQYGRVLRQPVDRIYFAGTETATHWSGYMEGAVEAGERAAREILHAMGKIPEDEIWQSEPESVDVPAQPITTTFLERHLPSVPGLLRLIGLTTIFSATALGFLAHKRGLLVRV
As to the kind of experiment: Reversibility of MAO-B inhibition by dialysis. In kind it is biochemical. As to conditions: dialysis experiment.

Turning to `C[C@H](NCc1ccc(OCc2cccc(F)c2)cc1)C(N)=O` [Safinamide], the “Reversibility of MAO-B inhibition” value is reported as “reversible”.
